Like-named read-outs stand apart in the source and are kept apart here.
How the values were obtained:
[1] = target: T1, B-Raf kinase (SEQ ID NO: 1) (Homo sapiens, UniProt P15056); experiment: Biochemical Assay for B-Raf (coupled pyruvate kinase/lactate dehydrogenase assay); conditions: 1 mM ATP; read-out: BRAF (inhibition of biochemical activity, IC50)
T1 construct: GST (N); purchased Sigma

[2] = target: T2, C-Raf kinase (SEQ ID NO: 2) (Homo sapiens, UniProt P04049, Y340D/Y341D); experiment: Biochemical Assay for C-Raf (coupled pyruvate kinase/lactate dehydrogenase assay); conditions: 1 mM ATP; read-out: CRAF (inhibition of biochemical activity, IC50)
T2 construct: C-Raf residues 306-end; Y340D, Y341D with; GST (N); purchased Sigma
T2 sequence (P04049 307-648 Y340D/Y341D): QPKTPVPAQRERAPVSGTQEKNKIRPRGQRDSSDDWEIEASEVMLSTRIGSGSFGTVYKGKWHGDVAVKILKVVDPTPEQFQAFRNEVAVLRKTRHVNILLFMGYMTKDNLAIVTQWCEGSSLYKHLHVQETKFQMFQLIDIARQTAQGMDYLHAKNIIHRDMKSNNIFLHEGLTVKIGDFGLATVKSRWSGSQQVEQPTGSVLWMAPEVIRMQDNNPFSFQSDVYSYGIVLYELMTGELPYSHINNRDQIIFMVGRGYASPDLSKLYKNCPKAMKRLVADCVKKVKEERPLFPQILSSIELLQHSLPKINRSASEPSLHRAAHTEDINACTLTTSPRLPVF

[3] = system: MiaPaca-2 cells; experiment: MiaPaca-2 Cell Proliferation Assay; type: cell-based; conditions: Table 2, read-out: Inhibition of cell proliferation in MiaPaca-2 (IC50 class)
Outline: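 Viability was read as resazurin fluorescence (540 nm excitation, 600 nm emission) after 5–6 h with dye. Compounds were tested as serial dilutions in triplicate, with IC50 derived from the dose–response.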

[4] = system: Pa16c cells; experiment: Pa16c Cell Proliferation Assay; type: cell-based; conditions: Table 2, read-out: Inhibition of cell proliferation in Pa16c (IC50 class)
Outline: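 Proliferation read-out: resazurin fluorescence (540 nm excitation, 600 nm emission) after an extra 18 to 24 h. Before that, compound dilution series (triplicate) stayed on 750 Pa16c cells/well in complete DMEM/10% FBS for 67 to 72 h at 37° C. IC50 values derived from the curves.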

[5] = system: HCT-116 cells; experiment: HCT-116 Cell Proliferation Assay; type: cell-based; conditions: Table 2, read-out: Inhibition of cell proliferation in HCT-116 (IC50 class)
Outline: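 IC50 values come from resazurin fluorescence (540 nm excitation, 600 nm emission) added for 4 to 5 h after compound treatment. Treatment: serially diluted compound in triplicate on 375 HCT-116 cells per well in complete McCoy's 5A/10% FBS, 67 to 72 hours, 37 °C, 5% CO2.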

[6] = system: HPAF-II cells; experiment: HPAF-II Cell Proliferation Assay; type: cell-based; conditions: HPAF-II cells, Table 2, read-out: Inhibition of cell proliferation in HPAF-II (IC50 class)
Outline: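 Viability read-out was resazurin fluorescence (540 nm excitation, 600 nm emission), developed 18–24 h after a 115–120 h compound exposure of 750 HPAF-II cells per well in MEM/10% FBS at 37 °C. Compound was tested as a serial dilution in triplicate, and IC50 values were calculated.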

[7] = Homo sapiens, MIA PaCa-2, MiaPaca-2 cells
[8] = Homo sapiens, HCT-116, HCT-116 cells

T1 sequence (P15056 416-766): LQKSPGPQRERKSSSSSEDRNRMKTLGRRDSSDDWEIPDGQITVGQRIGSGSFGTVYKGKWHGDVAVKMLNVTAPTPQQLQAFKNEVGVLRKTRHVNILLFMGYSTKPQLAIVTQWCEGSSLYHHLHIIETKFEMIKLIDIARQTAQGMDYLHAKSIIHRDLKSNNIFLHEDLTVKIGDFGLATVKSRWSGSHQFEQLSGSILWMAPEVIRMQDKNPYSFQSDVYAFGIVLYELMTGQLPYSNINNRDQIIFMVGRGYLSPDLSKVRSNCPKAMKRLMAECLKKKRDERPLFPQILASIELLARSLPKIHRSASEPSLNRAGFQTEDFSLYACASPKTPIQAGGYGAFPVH

| Structure (SMILES) | IC50 [1] [µM] | IC50 [2] [µM] | IC50 [3, 7] [µM] | IC50 [5, 8] [µM] | IC50 [4] [µM] | IC50 ([6]; Homo sapiens, HPAF-II) [µM] | IC50 ([3]; MiaPaca-2 cells) [µM] | IC50 ([5]; HCT-116 cells) [µM] | IC50 [6] [µM] |
| --- | --- | --- | --- | --- | --- | --- | --- | --- | --- |
| Cc1ccc(NC(=O)c2cc(C(F)(F)F)cnn2)cc1-c1ccnc(-c2ccnc(NC(=O)C3CN(C)CC3(F)F)c2)c1 (stereo not drawn) [Example 94, N-(3-(2′-(4,4-difluoro-1-methylpyrrolidine-3-carboxamido)-[2,4′-bipyridin]-4-yl)-4-methylphenyl)-5-(trifluoromethyl)pyridazine-3-carboxamide] | 0.1 to 0.5 | < 0.1 | 0.5 to 1 | 0.1 to 0.5 | 1 to 10 | 1 to 10 | – | – | – |
| Cc1ccc(NC(=O)c2cc(C(F)(F)F)cnn2)cc1-c1ccnc(-c2ccnc(NC(=O)C3(C)CCC3)c2)c1 [Example 7] | 0.5 to 1 | 0.1 to 0.5 | 0.1 to 0.5 | 0.1 to 0.5 | 0.1 to 0.5 | 0.1 to 0.5 | – | – | – |
| Cc1ccc(NC(=O)c2ccc(C(F)(F)F)nc2)cc1-c1cncc(-c2cc(NC(=O)C3CC3)ncn2)c1 [Example 75] | < 0.1 | < 0.1 | 1 to 10 | 1 to 10 | 1 to 10 | 1 to 10 | – | – | – |
| Cc1ccc(NC(=O)c2cc(C(F)(F)F)cnn2)cc1-c1ccnc(-c2ccnc(NC(=O)CC3(C)CC3)c2)c1 [Example 90] | 0.1 to 0.5 | 0.1 to 0.5 | 0.1 to 0.5 | 0.1 to 0.5 | 1 to 10 | 0.1 to 0.5 | – | – | – |
| COC(=O)Nc1cc(-c2ccnc(-c3cc(NC(=O)c4ccc(C(F)(F)F)nc4)ccc3C)n2)ccn1 [Example 6] | < 0.1 | < 0.1 | 1 to 10 | 0.5 to 1 | 1 to 10 | 1 to 10 | – | – | – |
| Cc1ncc(NC(=O)c2cc(C(F)(F)F)cnn2)cc1-c1ccnc(-c2ccnc(NC(=O)C3CC3)c2)c1 [Example 34] | < 0.1 | < 0.1 | 1 to 10 | 1 to 10 | 1 to 10 | 1 to 10 | – | – | – |
| Cc1ccc(NC(=O)c2cncc(C(F)(F)F)n2)cc1-c1cncc(-c2cc(NC(=O)C3CC3)ncn2)c1 [Example 61] | < 0.1 | < 0.1 | 1 to 10 | < 0.1 | 1 to 10 | 1 to 10 | – | – | – |
| Cc1ccc(NC(=O)c2cnc(C(F)(F)F)cn2)cc1-c1ccnc(-c2ccnc(NC(=O)C3CC3)c2)c1 [Example 56] | 0.1 to 0.5 | < 0.1 | 0.5 to 1 | 0.5 to 1 | 1 to 10 | 1 to 10 | – | – | – |
| CC(=N)Nc1cc(-c2cc(-c3cc(NC(=O)c4cc(C(F)(F)F)cnn4)ccc3C)ccn2)ccn1 [Example 91] | 0.1 to 0.5 | 0.1 to 0.5 | 0.5 to 1 | 0.5 to 1 | 1 to 10 | 1 to 10 | – | – | – |
| Cc1ccc(NC(=O)c2cc(C3CC3)cnn2)cc1-c1nc(NCCO)cc(-c2ccnc(NC(=O)C3CC3)c2)n1 [Example 102] | < 0.1 | < 0.1 | 1 to 10 | 0.5 to 1 | 1 to 10 | 1 to 10 | – | – | – |
| Cc1ccc(NC(=O)c2cc(C(F)(F)F)cnn2)cc1-c1cccc(-c2cc(NC(=O)C3CC3)ncn2)c1 [Example 11] | < 0.1 | < 0.1 | 0.5 to 1 | 0.1 to 0.5 | 1 to 10 | 0.5 to 1 | – | – | – |
| Cc1ccc(NC(=O)c2cc(C(F)(F)F)cnn2)cc1-c1ccnc(-c2ccnc(NC(=O)C3(F)CC3)c2)c1 [Example 4, N-(3-(2′-(1-fluorocyclopropane-1-carboxamido)-[2,4′-bipyridin]-4-yl)-4-methylphenyl)-5-(trifluoromethyl)pyridazine-3-carboxamide] | < 0.1 | < 0.1 | 0.1 to 0.5 | 0.1 to 0.5 | 0.1 to 0.5 | 0.1 to 0.5 | – | – | – |
| Cc1ccc(NC(=O)c2cc(C3CC3)cnn2)cc1-c1cncc(-c2cc(NC(=O)C3CC3)ncn2)c1 [Example 69] | < 0.1 | < 0.1 | 1 to 10 | 0.1 to 0.5 | 1 to 10 | 0.5 to 1 | – | – | – |
| Cc1ccc(NC(=O)c2cccnn2)cc1-c1ccnc(-c2ccnc(NC(=O)C3CC3)c2)c1 [Example 83] | 1 to 10 | 0.1 to 0.5 | 1 to 10 | 1 to 10 | 1 to 10 | 1 to 10 | – | – | – |
| Cc1ccc(NC(=O)c2ccc(C(F)(F)F)nc2)cc1-c1ccnc(-c2ccnc(NC(=O)C3CC3)c2)c1 [Example 79] | < 0.1 | < 0.1 | – | – | 0.1 to 0.5 | – | 0.1 to 0.5 | 0.1 to 0.5 | 0.1 to 0.5 |
| Cc1ccc(NC(=O)c2cc(C(C)C)cnn2)cc1-c1cncc(-c2ccnc(NC(=O)C3CC3)c2)c1 [Example 55] | < 0.1 | < 0.1 | 0.5 to 1 | < 0.1 | 1 to 10 | 0.1 to 0.5 | – | – | – |

The next lines start with results.

| IC50 [1] [µM] | IC50 [2] [µM] | IC50 [3, 7] [µM] | IC50 [5, 8] [µM] | Structure (SMILES) | IC50 [4] [µM] | IC50 ([6]; Homo sapiens, HPAF-II) [µM] | IC50 ([3]; MiaPaca-2 cells) [µM] | IC50 ([5]; HCT-116 cells) [µM] | IC50 [6] [µM] |
| --- | --- | --- | --- | --- | --- | --- | --- | --- | --- |
| 0.1 to 0.5 | 0.1 to 0.5 | 0.1 to 0.5 | 0.1 to 0.5 | CONc1cc(-c2cc(-c3cc(NC(=O)c4cc(C(F)(F)F)cnn4)ccc3C)ccn2)ccn1 [Example 128, N-(3-(2′-(methoxyamino)-[2,4′-bipyridin]-4-yl)-4-methylphenyl)-5-(trifluoromethyl)pyridazine-3-carboxamide] | 0.5 to 1 | 0.1 to 0.5 | – | – | – |
| < 0.1 | < 0.1 | < 0.1 | < 0.1 | Cc1ccc(NC(=O)c2cc(C(F)(F)F)cnn2)cc1-c1cc(OCCO)nc(-c2cn[nH]c2)c1 [Example 116] | < 0.1 | < 0.1 | – | – | – |
| < 0.1 | < 0.1 | 0.1 to 0.5 | 0.5 to 1 | Cc1ccc(NC(=O)c2cc(Br)cnn2)cc1-c1ccnc(-c2ccnc(NC(=O)C3CC3)c2)c1 [Example 130] | 0.5 to 1 | 1 to 10 | – | – | – |
| < 0.1 | < 0.1 | 0.1 to 0.5 | 0.5 to 1 | Cc1ccc(NC(=O)c2cc(C(F)(F)F)cnn2)cc1-c1cncc(-c2cc(NC=O)ncn2)c1 [Example 124] | 0.5 to 1 | 0.5 to 1 | – | – | – |
| < 0.1 | < 0.1 | 0.1 to 0.5 | < 0.1 | Cc1ccc(NC(=O)c2cc(C(F)(F)F)cnn2)cc1-c1cc(OCCO)nc(-c2ccnc(NC(=O)C3CC3)c2)c1 [Example 131] | 0.1 to 0.5 | 0.1 to 0.5 | – | – | – |
| < 0.1 | < 0.1 | < 0.1 | < 0.1 | CNc1cc(-c2cc(NC(=O)c3cc(C(F)(F)F)cnn3)ccc2C)cc(-c2ccnc(NC(=O)C3CC3)c2)n1 [Example 118] | < 0.1 | < 0.1 | – | – | – |
| 0.1 to 0.5 | < 0.1 | 0.1 to 0.5 | 0.1 to 0.5 | Cc1ccc(NC(=O)c2cc(C(C)(F)F)cnn2)cc1-c1ccnc(-c2cnn(C)n2)c1 [Example 140] | 1 to 10 | 0.5 to 1 | – | – | – |
| 0.1 to 0.5 | < 0.1 | 0.1 to 0.5 | 0.1 to 0.5 | Cc1ccc(NC(=O)c2cc(C(F)(F)F)cnn2)cc1-c1ccnc(-c2cnn(C)n2)c1 [Example 139] | 0.5 to 1 | 0.1 to 0.5 | – | – | – |
| 0.1 to 0.5 | 0.1 to 0.5 | 0.1 to 0.5 | 0.1 to 0.5 | Cc1ccc(NC(=O)c2cc(C(F)(F)F)cnn2)cc1-c1ccnc(-c2ccoc2)c1 [Example 145] | 0.1 to 0.5 | 0.1 to 0.5 | – | – | – |
| 0.1 to 0.5 | 0.1 to 0.5 | 0.1 to 0.5 | 0.1 to 0.5 | CCn1cc(-c2cc(-c3cc(NC(=O)c4cc(C(F)(F)F)cnn4)ccc3C)ccn2)cn1 [Example 115] | 0.1 to 0.5 | 0.1 to 0.5 | – | – | – |
| 1 to 10 | 1 to 10 | 0.1 to 0.5 | 0.1 to 0.5 | Cc1ccc(NC(=O)c2cc(C(C)(F)F)cnn2)cc1-c1ccnc(-c2cscn2)c1 [Example 143] | 1 to 10 | 0.1 to 0.5 | – | – | – |
| < 0.1 | < 0.1 | 0.5 to 1 | 0.5 to 1 | Cc1ccc(NC(=O)c2cc(C(F)(F)F)cnn2)cc1-c1cncc(-c2cc(NC(=O)C(F)(F)F)ncn2)c1 [Example 125] | 0.5 to 1 | 0.5 to 1 | – | – | – |
| 0.1 to 0.5 | 0.1 to 0.5 | 0.1 to 0.5 | 0.1 to 0.5 | Cc1ccc(NC(=O)c2cc(C(C)(F)F)cnn2)cc1-c1ccnc(-c2ccoc2)c1 [Example 149] | 0.1 to 0.5 | 0.1 to 0.5 | – | – | – |

Reference: US20260226084A1, “DUAL RAF AND TUBULIN INHIBITORS AND METHODS OF USE THEREOF” (Deciphera Pharmaceuticals, LLC, priority 2023, published 2026)
